Among the test systems are SK-MEL-5; NCI-H23; SK-MEL-2; HT-29; DMS-273; SF-268; RPMI-8226; SF-539; SR; CAKI-1; A498; HOP-62; SNB-75; SK-MEL-28; ACHN; K562; T47D; PC-3; Hs-578T; MDA-N.
Common to all, as to assay: growth of human tumour cells (NCI), 48 h

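All cell lines were grown in 96-well plates and treated with compound for 48 hours. GI50 = concentration required for 50% inhibition of growth.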 The source made the active and inactive calls. Cut-off read from the data, not from the text of the source: active = GI50 up to about 1.1 µM and inactive = higher. Bounds are passed on as bounds.

With `Cc1cc2occ(-c3ccc(Cl)cc3)c2c(=O)o1`, the GI50 in the assay on SK-MEL-5, in the assay on NCI-H23, in the assay on SK-MEL-2, with HT-29, with DMS-273 and with SF-268 was > 100 µM (inactive) each time. For the same compound, the GI50 was 61.4 µM (inactive) in the assay with RPMI-8226; > 100 µM (inactive) in the assay with SF-539; 38.1 µM (inactive) in the assay on SR; 98.6 µM (inactive) in the assay on CAKI-1; > 100 µM (inactive) with A498; > 100 µM (inactive) with HOP-62. The GI50 in the assay with SNB-75 was 55.7 µM (inactive); with SK-MEL-28, > 100 µM (inactive); with ACHN it was > 100 µM (inactive); in the assay with K562, > 100 µM (inactive).

For `N#CC(C(=O)C(=O)Nc1c(Cl)cccc1Cl)c1ccccc1` (centres undefined), the GI50 in the assay on SK-MEL-5, in the assay on NCI-H23, in the assay on SK-MEL-2, with HT-29, in the assay with DMS-273 and in the assay with SF-268 was > 10 µM (inactive) in each case. Besides, the GI50 in the assay on RPMI-8226, with SF-539, in the assay with SR, with CAKI-1, in the assay on A498 and in the assay with HOP-62 was > 10 µM (inactive) throughout. Moreover, the GI50 with SNB-75, in the assay with SK-MEL-28, in the assay with ACHN and in the assay on K562 was > 10 µM (inactive) throughout.

In the case of `COc1cc2c(c(O)c1C)C(=O)C(Cl)=CC2=O`, the GI50 with SK-MEL-5 is 8.69 µM (inactive); in the assay on NCI-H23, 10.2 µM (inactive); in the assay on SK-MEL-2 it was 15.6 µM (inactive); in the assay with T47D, 2.17 µM (inactive); in the assay with HT-29, 10.8 µM (inactive); with DMS-273, 19.2 µM (inactive). The GI50 in the assay on PC-3 was 15.2 µM (inactive); in the assay with SF-268 it was 17.8 µM (inactive); with RPMI-8226, 6.35 µM (inactive); with SF-539, 18.1 µM (inactive); in the assay with SR, 0.662 µM (active); in the assay on CAKI-1, 5.45 µM (inactive). Further, the GI50 with Hs-578T is 30.5 µM (inactive); in the assay on A498 it was 19 µM (inactive); in the assay with HOP-62, 43.2 µM (inactive); in the assay on SNB-75 it was 16.4 µM (inactive); in the assay with SK-MEL-28 it was 18.8 µM (inactive); with ACHN, 6.4 µM (inactive). The GI50 with K562 was 2.26 µM (inactive); in the assay with MDA-N it was 4.07 µM (inactive).

With `CC1OC(CC2C=CCc3c(O)c4c(c(O)c32)C(=O)c2ccccc2C4=O)CC(NC(=O)C(F)(F)F)C1O` (centres undefined), the GI50 was 11.2 µM (inactive) in the assay with SK-MEL-5; 7.59 µM (inactive) in the assay on NCI-H23; 6.87 µM (inactive) with SK-MEL-2; 14.4 µM (inactive) with HT-29; 6.32 µM (inactive) with DMS-273; 10.3 µM (inactive) with SF-268. The GI50 in the assay on RPMI-8226 is 4.28 µM (inactive); with SF-539 it was 3.95 µM (inactive); in the assay with SR, 3.7 µM (inactive); with CAKI-1, 7.55 µM (inactive); in the assay with A498, 4.69 µM (inactive); in the assay on HOP-62, 6.49 µM (inactive). For the same compound, the GI50 with SNB-75 was 2.27 µM (inactive); in the assay with SK-MEL-28, 4.55 µM (inactive); in the assay with ACHN, 10.9 µM (inactive); in the assay on K562 it was 4.85 µM (inactive).

`O=C(Nc1nc2ncn(CCI)c2c(=O)[nH]1)c1ccccc1`: the GI50 is > 100 µM (inactive) in the assay with SK-MEL-5; > 100 µM (inactive) with NCI-H23; > 53.5 µM (inactive) in the assay with SK-MEL-2; > 100 µM (inactive) in the assay on HT-29; > 100 µM (inactive) in the assay on DMS-273; 21.5 µM (inactive) in the assay with SF-268. Besides, the GI50 was > 100 µM (inactive) in the assay on RPMI-8226; 26.1 µM (inactive) in the assay with SF-539; > 100 µM (inactive) in the assay with SR; > 100 µM (inactive) in the assay on CAKI-1; 16 µM (inactive) in the assay on A498; 30.1 µM (inactive) with HOP-62. The GI50 was 20.5 µM (inactive) in the assay with SNB-75, > 100 µM (inactive) with SK-MEL-28, > 75 µM (inactive) in the assay on ACHN and > 100 µM (inactive) in the assay with K562.

Consider `CC(=O)OCSc1ncnc2c1ncn2CN1CCOCC1`, for which the GI50 in the assay with SK-MEL-5 was 49.4 µM (inactive); in the assay with NCI-H23, 11.9 µM (inactive); in the assay with SK-MEL-2, > 100 µM (inactive); with HT-29, 13.9 µM (inactive); in the assay on DMS-273 it was 5.11 µM (inactive); in the assay with SF-268, 31.3 µM (inactive). In addition, the GI50 in the assay on RPMI-8226 is 4.44 µM (inactive); in the assay on SF-539, 6.82 µM (inactive); in the assay with SR, 6.14 µM (inactive); in the assay with CAKI-1, 6.37 µM (inactive); in the assay with A498, > 100 µM (inactive); in the assay with HOP-62, 10 µM (inactive). In addition, the GI50 in the assay on SNB-75 is 13.2 µM (inactive); in the assay with SK-MEL-28, > 100 µM (inactive); in the assay with ACHN, 33 µM (inactive); in the assay with K562, 0.841 µM (active).

In the case of `O=C(Nc1ccccc1[N+](=O)[O-])C(=O)C(C(=O)c1ccccc1-c1ccccc1)C1OC(=O)c2ccccc21` (centres undefined), the GI50 with SK-MEL-5 was 18 µM (inactive); in the assay on NCI-H23, 17.9 µM (inactive); with SK-MEL-2, 16.7 µM (inactive); with HT-29, 24 µM (inactive); in the assay with DMS-273, 14.3 µM (inactive); with SF-268, 14.3 µM (inactive). In addition, the GI50 is 18.5 µM (inactive) with RPMI-8226; 11.6 µM (inactive) in the assay with SF-539; 8.43 µM (inactive) in the assay on SR; 35.6 µM (inactive) in the assay on CAKI-1; 21.7 µM (inactive) in the assay on A498; 17.5 µM (inactive) in the assay on HOP-62. In addition, the GI50 with SNB-75 was 16.9 µM (inactive); in the assay with SK-MEL-28, 18.2 µM (inactive); in the assay on ACHN it was 30.8 µM (inactive); in the assay on K562 it was 17.2 µM (inactive).

Regarding `O=C1c2cccc3cc([N+](=O)[O-])cc(c23)C(=O)N1CCNCCNCCNCCN1C(=O)c2cccc3cc([N+](=O)[O-])cc(c23)C1=O`, the GI50 with SK-MEL-5 is 0.152 µM (active); in the assay on NCI-H23, 0.00193 µM (active); in the assay with SK-MEL-2, 0.00995 µM (active); in the assay on HT-29 it was < 0.001 µM (active); with DMS-273, < 0.001 µM (active); in the assay on SF-268, 0.00564 µM (active). Moreover, the GI50 in the assay with RPMI-8226 was 0.01 µM (active); in the assay on SF-539 it was 0.00547 µM (active); in the assay on SR, 0.01 µM (active); with CAKI-1 it was < 0.001 µM (active); with A498, 0.0128 µM (active); in the assay with HOP-62, 0.00143 µM (active). Moreover, the GI50 in the assay with SNB-75 was 0.0108 µM (active); in the assay with SK-MEL-28, 0.0311 µM (active); in the assay on ACHN, 0.01 µM (active); with K562, < 0.001 µM (active).

`CCC12C=CCN3CCC4(C(=C(C(=O)OC)[C@@H]1O)Nc1ccccc14)C32` (some centres undefined): the GI50 in the assay with SK-MEL-5 is 1.79 µM (inactive); with NCI-H23, 1.85 µM (inactive); in the assay on SK-MEL-2 it was 1.9 µM (inactive); in the assay on HT-29, 1.98 µM (inactive); with DMS-273, 1.69 µM (inactive); with SF-268, 2.29 µM (inactive). Also, the GI50 is 2.17 µM (inactive) with RPMI-8226; 2.07 µM (inactive) in the assay with SF-539; 1.78 µM (inactive) in the assay on SR; 2.29 µM (inactive) in the assay on CAKI-1; 1.96 µM (inactive) with A498; 2.12 µM (inactive) in the assay on HOP-62. In addition, the GI50 in the assay with SNB-75 was 1.9 µM (inactive); in the assay with SK-MEL-28, 1.95 µM (inactive); in the assay with ACHN, 1.56 µM (inactive); in the assay with K562, 2.03 µM (inactive).

With `OC1(C(Sc2ccccc2)Sc2ccccc2)CCCCCC1`, the GI50 in the assay with SK-MEL-5 is 16.1 µM (inactive); with NCI-H23 it was 35.8 µM (inactive); with SK-MEL-2, 18.1 µM (inactive); in the assay with DMS-273 it was 27.8 µM (inactive); in the assay with SF-268 it was 33.1 µM (inactive); in the assay on RPMI-8226, 21.5 µM (inactive). For the same compound, the GI50 was 21.9 µM (inactive) in the assay on SF-539; 20.8 µM (inactive) in the assay with SR; 12.2 µM (inactive) in the assay on CAKI-1; 34 µM (inactive) in the assay with A498; 21.9 µM (inactive) in the assay on HOP-62; 33.4 µM (inactive) with SNB-75. Also, the GI50 was 56.1 µM (inactive) with SK-MEL-28, 26 µM (inactive) in the assay with ACHN and > 10 µM (inactive) with K562.

For `CCN(CCCl)CCCNc1c2ccccc2nc2ccc(OC)cc12`, the GI50 in the assay on SK-MEL-5 was 0.388 µM (active); with NCI-H23 it was 0.12 µM (active); in the assay with SK-MEL-2 it was 0.418 µM (active); in the assay with HT-29, 0.0853 µM (active); with DMS-273, 0.059 µM (active); in the assay with SF-268, 0.122 µM (active). For the same compound, the GI50 with RPMI-8226 is 0.0637 µM (active); with SF-539, 0.142 µM (active); with SR, 0.0158 µM (active); with CAKI-1 it was 0.0959 µM (active); with A498 it was 1.19 µM (inactive); in the assay on HOP-62 it was 0.605 µM (active). For the same compound, the GI50 in the assay on SNB-75 is 0.635 µM (active); in the assay on SK-MEL-28, 0.743 µM (active); with ACHN, 0.149 µM (active); with K562, 0.0861 µM (active).

The values above are taken from ChEMBL document CHEMBL1201862, “PubChem BioAssay data set” (2004).
